Laboratory results: PubChem BioAssay (NCI)
Several values for one entry are separate records, joined by “and”; a condition that tells them apart may be missing. Identical values can stand only once.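 Values below derive from 48-hour exposures of cells grown in 96-well plates, with endpoints linearly interpolated between the two concentrations bracketing the appropriate inhibition level. Here, GI50 denotes the concentration required for 50% inhibition of growth. The concentration for full growth arrest is given as TGI.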

How the values were obtained:
Assay in all cases: NCI anticancer screen, dose series, 48 h
SNB-75 CNS = tested on: SNB-75 CNS
ACHN renal = tested on: ACHN renal
OVCAR-8 ovarian = tested on: OVCAR-8 ovarian
SF-268 CNS = tested on: SF-268 CNS
HOP-92 NSCLC = tested on: HOP-92 NSCLC
A549 NSCLC = tested on: A549 NSCLC
PC-3 prostate = tested on: PC-3 prostate
UACC-257 melanoma = tested on: UACC-257 melanoma
OVCAR-5 ovarian = tested on: OVCAR-5 ovarian
SK-MEL-5 melanoma = tested on: SK-MEL-5 melanoma

Row | Structure (SMILES) | TGI (SNB-75 CNS) | TGI (ACHN renal) [µM] | TGI (OVCAR-8 ovarian) | TGI (SF-268 CNS) | TGI (HOP-92 NSCLC) | TGI (A549 NSCLC) | TGI (PC-3 prostate) [µM] | TGI (UACC-257 melanoma) | TGI (OVCAR-5 ovarian) | TGI (SK-MEL-5 melanoma) | GI50 (SNB-75 CNS) [nM] | GI50 (OVCAR-8 ovarian) | GI50 (SF-268 CNS) [nM] | GI50 (HOP-92 NSCLC) | GI50 (A549 NSCLC) | GI50 (UACC-257 melanoma) [nM] | GI50 (OVCAR-5 ovarian) [nM] | GI50 (SK-MEL-5 melanoma) [nM]
1 | COC(=O)[C@@H]1C=CCN1S(=O)(=O)c1ccc(C)cc1 | > 100 µM | > 100 | > 100 µM | > 100 µM | > 100 µM | > 100 µM | > 100 | > 100 µM | > 100 µM | > 100 µM | – | – | – | – | – | – | – | –
2 | Cc1c2oc(=O)c(C#N)cc2c2ccccn12 | > 100 µM | > 100 | > 100 µM | > 100 µM | > 100 µM | > 100 µM | > 100 | > 100 µM | > 100 µM | > 100 µM | – | – | – | – | – | – | – | –
3 | CNCC(SC)c1ccc(O)c(O)c1 (centres undefined) | > 100 µM | 33.4 | 41.4 µM | > 100 µM | 39.3 µM | > 100 µM | > 100 | 27.9 µM | > 100 µM | > 100 µM | – | – | – | – | – | – | – | –
4 | C#CCn1c(I)cc2c(c1=O)COC(=O)[C@]2(O)CC | > 100 µM | > 100 | > 100 µM | > 100 µM | > 100 µM | > 100 µM | > 100 | > 100 µM | > 100 µM | > 100 µM | – | – | – | – | – | – | – | –
5 | CC(C)=CC(=O)OC1C2C(C)=CC(=O)C(O)C2(C)C2C3(O)OCC24C(CC(=O)OC14)C(C)C3O (centres undefined) | 0.0621 µM and 0.0711 µM and 0.062 µM | 0.443 | 0.125 µM and 0.0247 µM and 0.0683 µM | 0.049 µM and 0.014 µM and 0.091 µM | 0.0465 µM and 0.0367 µM | 0.598 µM and 1.55 µM and 2.22 µM | 0.0129 | 0.0436 µM and 0.0432 µM | – | 0.01 µM and 0.0209 µM | 33.8 | 25.1 nM | 8.8 | 20.7 nM | 54.5 nM and 178 nM | 20 | 113 | 20
6 | COC1(C)CCC(OS(C)(=O)=O)CO1 (centres undefined) | > 100 µM | > 100 | > 100 µM | > 100 µM | > 100 µM | > 100 µM | > 100 | > 100 µM | > 100 µM | > 100 µM | – | – | – | – | – | – | – | –
7 | O=S1(=O)N=C(SCc2c[nH]c3ccccc23)N(c2ccccc2)c2ccncc21 | 87.7 µM | > 100 | > 100 µM | > 100 µM | > 100 µM | > 100 µM | > 100 | > 100 µM | > 100 µM | > 100 µM | – | – | – | – | – | – | – | –
8 | COC(=O)c1ccc(C)cc1C1CN=NC12Cc1cccc(C)c1C2=O (centres undefined) | > 100 µM | > 100 | 47.1 µM | > 100 µM | > 100 µM | > 100 µM | 70.6 | 66 µM | > 100 µM | 47.6 µM | – | – | – | – | – | – | – | –
9 | COC(=O)CCCc1nc2ccccc2nc1N=Nc1ccccc1 | > 100 µM | > 100 | 58.5 µM | > 100 µM | > 100 µM | > 100 µM | > 100 | > 100 µM | > 100 µM | > 100 µM | – | – | – | – | – | – | – | –
10 | CCN(CC)CC[n+]1ccc2c(C)c3[nH]c4ccccc4c3c(C)c2c1 | 1.14 µM and 0.847 µM and 1.23 µM | 32.8 | 4.97 µM and 5.17 µM and 2.25 µM | 1.07 µM and 1.28 µM and 1.64 µM | 1.94 µM and 4.34 µM and 2.71 µM | 5.22 µM and 5.45 µM and 8.14 µM | 3.18 | 2.07 µM and 2.59 µM and 1.99 µM | 5.15 µM and 15 µM and 7.28 µM | 1.57 µM and 1.28 µM and 2.45 µM | 148 | 392 nM and 590 nM and 195 nM | – | 342 nM and 833 nM and 242 nM | 466 nM and 498 nM and 951 nM | 633 | 2740 | 239
11 | CCOC(=O)c1cnc2n(c1=O)[C@H]1CCCC[C@@H]1N2 | > 100 µM | > 100 | > 100 µM | > 100 µM | > 100 µM | > 100 µM | > 100 | > 100 µM | > 100 µM | > 100 µM | – | – | – | – | – | – | – | –
12 | O=[N+]([O-])/C(Cl)=C(\NCCO)C(Cl)=C(Cl)Cl | > 100 µM | > 100 | > 92.5 µM | > 100 µM | > 100 µM | > 100 µM | > 100 | > 100 µM | > 100 µM | > 100 µM | – | – | – | – | – | – | – | –
13 | O=C(NC1=C(Cl)C(=O)c2ccccc2C1=O)C(=O)c1c(O)c2ccccc2oc1=O | 25 µM | 14 | 31 µM | 25.6 µM | 32.3 µM | 6.07 µM | > 27.1 | 3.17 µM | 26.3 µM | 1.6 µM | – | – | – | – | – | – | – | –
14 | C[C@@H]1C[C@@H]2OC(=O)[C@]3(C)[C@H]2[C@@H](OC3(C)O)[C@]2(C)C(=O)C=C[C@@H]12 (some centres undefined) | > 100 µM | 45 | > 100 µM | > 100 µM | 38.9 µM | > 100 µM | > 100 | 50.2 µM | 41 µM | 51.2 µM | – | – | – | – | – | – | – | –
15 | C=CC(C)(C)/C(=C\CO[Si](C(C)C)(C(C)C)C(C)C)C(=O)N(C)c1ccccc1I | 31.7 µM | 25.8 | 28 µM | 24.5 µM | 22.2 µM | 23.9 µM | 12.6 | 28.7 µM | 27.5 µM | 32.1 µM | – | – | – | – | – | – | – | –
16 | Nc1ccnc2c1ncn2[C@H]1C[C@H](O)[C@@H](CO)O1 | > 100 µM | > 100 | > 100 µM | > 100 µM | > 100 µM | > 100 µM | > 100 | > 100 µM | > 100 µM | > 100 µM | – | – | – | – | – | – | – | –
17 | Cc1noc(-c2ccc(C(=O)O)[nH]2)c1Br | > 100 µM | > 100 | 32.2 µM | > 100 µM | 84.3 µM | > 100 µM | > 100 | > 100 µM | > 100 µM | > 100 µM | – | – | – | – | – | – | – | –
18 | C[C@]12CC[C@H]3[C@@H](CC=C4C[C@@H](O)CC[C@@]43C)[C@@H]1C/C(=C\c1ccc([N+](=O)[O-])cc1)[C@@H]2O | 32.1 µM | 24.4 | 36.9 µM | > 100 µM | 91.7 µM | 25.1 µM | 33.5 | 59 µM | 78.4 µM | 23.2 µM | – | – | – | – | – | – | – | –
